From patent US20160304552A1, “MODIFIED NUCLEIC ACID MOLECULES AND USES THEREOF” (MODERNA THERAPEUTICS, INC., priority 2013, published 2016)

How the values were obtained:
T7 RNA polymerase = T7 RNA polymerase (Escherichia phage T7, UniProt P00573); experiment: In vitro transcription yields of modified mRNA; format: biochemical; conditions: for EPO In Vitro Transcription yield: EPO mRNA made with the modified NTP(s); for GCSF In Vitro Transcription yield: GCSF mRNA made with the modified NTP(s); for Luc In Vitro Transcription yield: Luciferase mRNA made with the modified NTP(s)
Chain of T7 RNA polymerase (P00573 whole entry): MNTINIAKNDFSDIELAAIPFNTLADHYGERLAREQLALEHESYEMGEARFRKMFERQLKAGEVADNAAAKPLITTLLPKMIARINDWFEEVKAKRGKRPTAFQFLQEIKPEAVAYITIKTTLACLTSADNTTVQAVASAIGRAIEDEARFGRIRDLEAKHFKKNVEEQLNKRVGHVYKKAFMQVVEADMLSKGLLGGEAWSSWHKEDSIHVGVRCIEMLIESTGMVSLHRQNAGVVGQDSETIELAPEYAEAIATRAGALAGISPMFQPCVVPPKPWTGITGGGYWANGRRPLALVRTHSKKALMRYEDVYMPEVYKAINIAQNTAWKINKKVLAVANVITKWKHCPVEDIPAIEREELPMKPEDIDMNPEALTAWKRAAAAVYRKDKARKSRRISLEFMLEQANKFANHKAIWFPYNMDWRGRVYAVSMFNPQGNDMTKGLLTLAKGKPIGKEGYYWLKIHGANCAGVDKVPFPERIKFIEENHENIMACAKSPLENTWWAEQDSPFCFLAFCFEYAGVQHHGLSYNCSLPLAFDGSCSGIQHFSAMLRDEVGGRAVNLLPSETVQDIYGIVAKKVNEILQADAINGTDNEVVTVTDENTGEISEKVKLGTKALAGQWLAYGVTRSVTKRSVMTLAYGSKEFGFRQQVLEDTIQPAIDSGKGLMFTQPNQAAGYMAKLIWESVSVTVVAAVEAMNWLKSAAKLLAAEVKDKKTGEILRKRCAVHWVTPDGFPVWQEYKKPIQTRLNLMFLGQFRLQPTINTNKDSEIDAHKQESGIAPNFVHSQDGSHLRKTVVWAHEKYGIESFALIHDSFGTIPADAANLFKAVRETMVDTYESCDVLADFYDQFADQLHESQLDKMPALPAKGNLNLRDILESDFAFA
Protocol: The in vitro transcription reaction generates mRNA containing modified nucleotides or modified RNA. The input nucleotide triphosphate (NTP) mix is made in-house using natural and unnatural NTPs.
A typical in vitro transcription reaction includes the following:
Incubation at 37° C. for 3 hr-5 hrs.
The crude IVT mix may be stored at 4° C. overnight for cleanup the next day. 1 U of RNase-free DNase is then used to digest the original template. After 15 minutes of incubation at 37° C., the mRNA is purified using Ambion's […]™ Kit (Austin, Tex.) following the manufacturer's instructions. This kit can purify up to 500 μg of RNA. Following the cleanup, the RNA is quantified using the NanoDrop and analyzed by agarose gel electrophoresis to confirm the RNA is the proper size and that no degradation of the RNA has occurred.
Modified mRNAs in TE buffer (1 μl) are used for Nanodrop UV absorbance readings to quantitate the yield of each modified mRNA from an in vitro transcription reaction (UV absorbance traces are not shown).

HeLa cells = experiment: Transfection in HeLa cells, human EPO modRNA (EPO ELISA of supernatant); format: cell-based; conditions: Table 22, 18 h to 22 h
Protocol: The day before transfection, 20.000 HeLa cells (ATCC no. CCL-2; Manassas, Va.) were harvested by treatment with Trypsin-EDTA solution (LifeTechnologies, Grand Island, N.Y.) and seeded in a total volume of 100 ul EMEM medium (supplemented with 10% FCS and 1× Glutamax) per well in a 96-well cell culture plate (Corning, Manassas, Va.). The cells were grown at 37° C. in 5% CO2 atmosphere overnight. Next day, 83 ng of Luciferase modRNA or 250 ng of human GCSF modRNA, harboring chemical modifications on the bases or the ribose units, were diluted in 10 ul final volume of OPTI-MEM (LifeTechnologies, Grand Island, N.Y.). Lipofectamine 2000 (LifeTechnologies, Grand Island, N.Y.) was used as transfection reagent and 0.2 μl were diluted in 10 ul final volume of OPTI-MEM. After 5 min incubation at room temperature, both solutions were combined and incubated additional 15 min at room temperature. Then the 20 μl were added to the 100 ul cell culture medium containing the HeLa cells. The plates were then incubated as described before.
After 18 h to 22 h incubation, cell culture supernatants of cells expressing human GCSF or human EPO were collected and centrifuged at 10.000 rcf for 2 min. The cleared supernatants were transferred and analyzed with a human GCSF-specific or EPO ELISA kit (both from R&D Systems, Minneapolis, Minn.; Cat. #s SCS50, DEP00, respectively) according to the manufacturer instructions. All samples were diluted until the determined values were within the linear range of the human GCSF or EPO ELISA standard curve.

BJ fibroblast cells = experiment: Cytokine screen in BJ fibroblast cells, human CCL-5/RANTES ELISA; format: cell-based; conditions: BJ fibroblasts, 500 ng modRNA, 18 h to 22 h
Protocol: At 2 or 3 days prior to transfection, 100,000 BJ fibroblast cells (ATCC no. CRL-2522; Manassas, Va.) were harvested by treatment with trypsin-EDTA solution (LifeTechnologies, Grand Island, N.Y.) and seeded in a total volume of 500 ul EMEM medium (supplemented with 10% FCS and 10% Glutamax, both LifeTechnologies, Grand Island, N.Y.) per well in 24-well cell culture plates (Corning, Manassas, Va.). The cells were grown at 37° C. in a 5% CO2 atmosphere overnight. On the next day, 500 ng modRNA, harboring chemical modifications on the bases or the ribose units, were diluted in 25 ul final volume of OPTI-MEM (LifeTechnologies, Grand Island, N.Y.). Lipofectamine 2000 (LifeTechnologies, Grand Island, N.Y.) was used as transfection reagent and 1.0 ul was diluted in 25 ul final volume of OPTI-MEM. After 5 min incubation at room temperature, both solutions were combined and incubated an additional 15 min at room temperature. The 50 ul were added to the 500 ul cell culture medium containing the BJ fibroblast cells. The plates were then incubated as described above.
After 18 h to 22 h incubation, cell culture supernatants were collected and centrifuged at 10,000 rcf for 2 min. The cleared supernatants were transferred and analyzed with a human IFN-beta ELISA (R&D Systems, Minneapolis, Minn.; Cat. #s 41410-2) and human CCL-5/RANTES ELISA (R&D Systems, Minneapolis, Minn.; Cat. #s SRN00B) according to the manufacturer instructions. All samples were diluted until the determined values were within the linear range of the ELISA standard curves using a BioTek Synergy H1 plate reader (BioTek, Winooski, Vt.).

human PBMC = experiment: PBMC cytokine assay, interferon-alpha production (IFN-alpha multi-subtype ELISA); format: cell-based
Protocol: 50 mL of human blood from three donors was received from Research Blood Components (Brighton, Mass.) in sodium heparin tubes. […] The tubes were centrifuged at 2000 rpm for 30 minutes with low acceleration and braking (Thermo, Waltham, Mass., 75004506). The tubes were removed and the buffy coat PBMC layers were gently transferred to a fresh 50 mL conical and washed with DPBS. The tubes were centrifuged at 1450 rpm for 10 minutes. The supernatant was aspirated and the PBMC pellets were resuspended and washed in 50 mL of DPBS. The tubes were centrifuged at 1450 rpm for 10 minutes. […] The cell suspensions were adjusted to a concentration of 3.0×10^6 cells/mL live cells. […] Within 30 minutes, transfection mixtures were added to each well at a volume of 50 μL per well. […] The transfection mixtures were then transferred to each of the human PBMC plates at 50 μL per well (6 wells per mRNA sample). The plates were then incubated at 37° C. […] In order to harvest the supernatant, plates were centrifuged at 1450 rpm for 5 min in a swinging plate rotor. The supernatant of 6 wells transfected with the same mRNA was carefully harvested and pooled in a single well of a fresh 96-well plate. Supernatants were either frozen or used fresh until ELISA analysis was done. The ability of unmodified and modified mRNA to trigger innate immune recognition as measured by interferon-alpha production.

| Molecule | EPO In Vitro Transcription yield (T7 RNA polymerase) | GCSF In Vitro Transcription yield (T7 RNA polymerase) | Luc In Vitro Transcription yield (T7 RNA polymerase) | Luc mRNA RANTES (BJ fibroblast cells) | hEpo mRNA RANTES (BJ fibroblast cells) | hGCSF mRNA RANTES (BJ fibroblast cells) | also measured |
| --- | --- | --- | --- | --- | --- | --- | --- |
| CNc1ccn([C@@H]2O[C@H](COP(=O)(O)OP(=O)(O)OP(=O)(O)O)C(O)C2O)c(=O)n1 (stereo in doubt) [00901014004 (346), N4-methyl CTP] | 1.154 mg | 0.9028 mg | 1.124 mg | – | – | – | Epo Expression (HeLa cells): 90280 pg/mL |
| 5-trifluromethylcytidine TP, ATP, GTP, UTP | – | – | – | 2303 pg/mL | 7593 pg/mL | 4203 pg/mL | – |
| O=c1[nH]c(=S)ccn1[C@@H]1O[C@H](COP(=O)(O)OP(=O)(O)OP(=O)(O)O)C(O)C1O (some centres unmarked) [00901013011 (2), 4-Thio-UTP] | 0.0416 mg | 0.0759 mg | 0.1625 mg | – | – | – | – |
| 5-methoxy-uridine TP, ATP, GTP, UTP | – | – | – | 33.33 pg/mL | -6.66 pg/mL | -6.66 pg/mL | – |
| Cn1c(=O)[nH]cc([C@@H]2O[C@H](COP(=O)(O)OP(=O)(O)OP(=O)(O)O)C(O)C2O)c1=O (some centres unmarked) [00901015187 (236), 3-Methyl-pseudo-UTP] | 0.0125 mg | 0.0120 mg | 0.0152 mg | – | – | – | – |
| 5-hydroxymethyl-cytidine TP, ATP, GTP, UTP | – | – | – | 9826 pg/mL | 2160 pg/mL | 9063 pg/mL | – |
| O=c1[nH]c(=O)n([C@@H]2O[C@H](COP(=O)(O)OP(=O)(O)OP(=O)(O)O)C(O)C2O)cc1C(F)(F)F (some centres unmarked) [00901013002 (352), 5-Trifluoromethyl-UTP] | 0.3830 mg | 0.5102 mg | 0.3662 mg | – | – | – | – |
| COC(=O)Cc1cn([C@@H]2O[C@H](COP(=O)(O)OP(=O)(O)OP(=O)(O)O)C(O)C2O)c(=O)[nH]c1=O (stereo in doubt) [00901013005 (358), 5-Methoxy carbonyl methyl-UTP] | 0.6432 mg | 0.6475 mg | 0.8825 mg | – | – | – | Epo Expression (HeLa cells): 8333 pg/mL |
| CNCc1cn([C@@H]2O[C@H](COP(=O)(O)OP(=O)(O)OP(=O)(O)O)C(O)C2O)c(=O)[nH]c1=O (some centres unmarked) [00901013006 (353), 5-Methylamino methyl-UTP] | 0.3060 mg | 0.3494 mg | 0.2914 mg | – | – | – | – |
| pseudouridine TP, ATP, GTP, CTP | – | – | – | 4600 pg/mL | 5490 pg/mL | 5016 pg/mL | – |
| O=c1[nH]c(=O)n(CC(F)(F)F)cc1[C@@H]1O[C@H](COP(=O)(O)OP(=O)(O)OP(=O)(O)O)C(O)C1O (some centres unmarked) [03601015005 (175), 1-(2,2,2-Trifluoroethyl) pseudo-UTP] | 0.3379 mg | 0.2332 mg | 0.4388 mg | – | – | – | – |
| N4-acetyl-cytidine TP, ATP, GTP, UTP | – | – | – | 2546 pg/mL | 4360 pg/mL | 4103 pg/mL | – |
| Cn1c(=N)ccn([C@@H]2O[C@H](COP(=O)(O)OP(=O)(O)OP(=O)(O)O)C(O)C2O)c1=O (some centres unmarked) [Compound 00901014006, 3-Methyl-CTP] | 0.0060 mg | 0.0141 mg | 0.0068 mg | – | – | – | – |
| Cn1c(N)nc2c(ncn2[C@@H]2O[C@H](COP(=O)(O)OP(=O)(O)OP(=O)(O)O)C(O)C2O)c1=O (some centres unmarked) [Compound 00901012008, N1-Me-GTP] | 0.0032 mg | 0.0050 mg | 0.0059 mg | – | – | – | – |
| Nc1ccn([C@@H]2O[C@H](COP(=O)(O)OP(=O)(O)OP(=O)(O)O)C(O)C2O)c(=S)n1 (some centres unmarked) [Compound 00901014010, 2-Thio-CTP] | 0.0061 mg | 0.0076 mg | 0.0073 mg | – | – | – | – |
| 1-methyl-pseudouridine TP, ATP, GTP, CTP | – | – | – | 5473 pg/mL | 8780 pg/mL | 4816 pg/mL | – |
| Nc1nc(=O)n([C@@H]2O[C@H](COP(=O)(O)OP(=O)(O)OP(=O)(O)O)C(O)C2O)cc1C(F)(F)F (some centres unmarked) [00901016002 (351), 5-Trifluoromethyl-CTP] | – | – | – | – | – | – | interferon-alpha concentration in PBMC supernatant (human PBMC; Luc mRNA, 1st value in cell): 6670 pg/mL; interferon-alpha concentration in PBMC supernatant (human PBMC; Luc mRNA, 2nd value in cell): 2190 pg/mL; interferon-alpha concentration in PBMC supernatant (human PBMC; Luc mRNA, 3rd value in cell): 6410 pg/mL; interferon-alpha concentration in PBMC supernatant (human PBMC; hEPO mRNA, 1st value in cell): 4440 pg/mL; interferon-alpha concentration in PBMC supernatant (human PBMC; hEPO mRNA, 2nd value in cell): 3100 pg/mL; interferon-alpha concentration in PBMC supernatant (human PBMC; hEPO mRNA, 3rd value in cell): 1412.5 pg/mL; interferon-alpha concentration in PBMC supernatant (human PBMC; hGCSF mRNA, 1st value in cell): 6253.33 pg/mL; interferon-alpha concentration in PBMC supernatant (human PBMC; hGCSF mRNA, 2nd value in cell): 6725 pg/mL; interferon-alpha concentration in PBMC supernatant (human PBMC; hGCSF mRNA, 3rd value in cell): 6280 pg/mL |
| Nc1ncnc2c1nnn2[C@@H]1O[C@H](COP(=O)(O)OP(=O)(O)OP(=O)(O)O)C(O)C1O (some centres unmarked) [00901011003 (377), 8-Aza-ATP] | 0.0055 mg | 0.03 mg | 0.0262 mg | – | – | – | – |
| Nc1nc(N)c2ncn([C@@H]3O[C@H](COP(=O)(O)OP(=O)(O)OP(=O)(O)O)C(O)C3O)c2n1 (some centres unmarked) [03601011002 (154), 2-Amino-ATP] | 0.2612 mg | 0.1567 mg | 0.1215 mg | – | – | – | – |
| 5-bromocytidine TP, ATP, GTP, UTP | – | – | – | 1380 pg/mL | 1343 pg/mL | 1900 pg/mL | – |
| 2-thio-pseudouridine TP, ATP, GTP, CTP | – | – | – | 1706 pg/mL | 5440 pg/mL | 2106 pg/mL | – |
